Laboratory results published in US20250129012A1, “ANTI-INFLAMMATORY AND ANALGESIC COMPOUNDS AND USE THEREOF” (JIANGSU ATOM BIOSCIENCE AND PHARMACEUTICAL CO., LTD., priority 2021, published 2025).
Marks after values point to notes of the source that are not given here.

Columns and labels:
Type in all cases: in vivo, SD rats
[1] = system: TNF-α; assay: Inflammatory factor experiment A: TNF-α in gouty arthritis rats; settings: synovial tissue of knee joints; dose 0.6 mg/kg gavage; day 10
Procedure: (§1) Compounds 14, 17 and 26 were prepared by grinding with 0.5% CMC-Na before administration and into a suspension for gavage at the corresponding concentration (0.06 mg/mL), with a dosage volume of 10 mL/kg. Colchicine, purchased from Sun Chemical Technology (Shanghai) Co., Ltd. with batch no. 49ETRRAS, and was prepared by grinding with 0.5% CMC-Na before administration and into a suspension for gavage at the corresponding concentration (0.06 mg/mL), with a dosage volume of 10 mL/kg.
(§2) The compounds in each group were prepared into a suspension of the corresponding concentration, and the dosage volume was 10 mL/kg.
(§3) The crystalline arthritis model was prepared by intra-articular injection of urate crystals (40 mg/mL in the left ankle joint of each rat). Different doses of the test compounds were given separately by gavage administration. The day of administration was defined as day 1 of the experiment, and the compounds were administered once a day for 10 consecutive days (pre-administration of the drug for 7 days prior to modeling, modeling on day 8, and continuation of the drug for 3 days). The experiment ended on day 10. […]

[2] = system: gouty arthritis in rats (urate crystals, left ankle joint); assay: Pharmacodynamics experiment A on gouty arthritis in rats: gait score; design: Gait Score: scale not given here; settings: 0.6 mg/kg gavage; for Gait versus model group, in words: time points after modeling, P<0.05 or P<0.01; for Gait Score: Mean ± SEM
Procedure: (§4) Compounds 2, 17, 26 and 27 were prepared by grinding with 0.5% CMC-Na into a suspension of the corresponding concentration (0.06 mg/mL) for gavage before administration, and the volume of administration was 10 mL/kg. […] Before use, 0.5% CMC-Na was used for grinding and prepared into a suspension of the corresponding concentration (0.06 mg/mL) for gavage, and the volume of drug administered was 10 mL/kg.
(§5) Each group of subjects was prepared into a suspension of the corresponding concentration, and the administration volume was 10 mL/kg.
(§6) The crystalline arthritis model was prepared by intra-articular injection of urate crystals (40 mg/mL, in the left ankle joint of each rat). Different doses of the test drug were given separately by gavage administration. The day of administration was defined as day 1 of the experiment, and the drug was administered once a day for 10 consecutive days (pre-administration of the drug for 7 days prior to modeling, modeling on day 8, and continuation of the drug for 3 days). The experiment ended on day 10.
The degree of lameness of the modeled joints was observed and scored at the same time point.
(§7) The data obtained from the experiment were statistically analyzed using IBM SPSS Statistics 22.0. All measurements were expressed as Mean±S.E.M s. The data were analyzed using SPSS 22.0 statistical software and variance chi-square test was performed on the parameters.

[3] = system: IL-6; assay: Inflammatory factor experiment A: IL-6 in gouty arthritis rats; settings: synovial tissue of knee joints; dose 0.6 mg/kg gavage; day 10
Procedure: as §1, §2, §3

[4] = system: gouty arthritis in rats (urate crystals, left ankle joint); assay: Pharmacodynamics experiment A on gouty arthritis in rats: pain score; design: Pain score: scale not given here; settings: 0.6 mg/kg gavage; for Pain versus model group, in words: time points after modeling, P<0.05 or P<0.01; for Pain score: Mean ± SEM
Procedure: as §4, §5, §6
The pain level was scored using the flexion and extension joint pain test scoring method at the same time point.
as §7

[5] = system: gouty arthritis in rats (urate crystals, left ankle joint); assay: Pharmacodynamics experiment A on gouty arthritis in rats: paw volume; settings: for Paw volume versus model group, in words: time points after modeling; for Paw volume: Mean ± SEM
Procedure: as §4, §5, §6
Paw volume was measured before administration, before urate injection, and 2, 4, 8, 10, 24, and 48 h after injection.
as §7

[6] = 2 h after modeling, 0.6 mg/kg gavage
[7] = 4 h after modeling, 0.6 mg/kg gavage
[8] = 8 h after modeling, 0.6 mg/kg gavage
[9] = 10 h after modeling, 0.6 mg/kg gavage
[10] = 24 h after modeling, 0.6 mg/kg gavage
[11] = 48 h after modeling, 0.6 mg/kg gavage
[12] = before modeling, 0.6 mg/kg gavage once a day

COc1cc2c(c(OC)c1OC)-c1cc(C)c(=O)c(OC)cc1[C@@H](NC(C)=O)CC2 [Compound 17, (S)—N-(1,2,3,9-tetramethoxy-11-methyl-10-oxo-5,6,7,10-tetrahydrobenzo[a]heptalen-7-yl)acetamide]
Decreased TNF-α percentage % [1]: 107.16% | Gait versus model group, in words [2]: significantly improved the gait at 2 h, 8 h, and 24 h | Gait Score ([2]; 2 h after modeling): 1.00 ± 0.00 | Gait Score ([2]; 4 h after modeling): 1.20 ± 0.13 | Gait Score ([2]; 8 h after modeling): 1.00 ± 0.00 | Gait Score ([2]; 10 h after modeling): 1.10 ± 0.10 | Gait Score ([2]; 24 h after modeling): 1.10 ± 0.10 | Gait Score ([2]; 48 h after modeling): 1.10 ± 0.10 | Gait Score ([2]; before modeling): 0.00 ± 0.00 | Decreased IL-6 percentage % [3]: 132.54% | Pain versus model group, in words [4]: significantly improved gait at 2 h, 8 h, and 24 h | Pain score ([4]; 2 h after modeling): 3.10 ± 0.64 | Pain score ([4]; 4 h after modeling): 3.20 ± 0.66 | Pain score ([4]; 8 h after modeling): 3.00 ± 0.68 | Pain score ([4]; 10 h after modeling): 3.30 ± 0.54 | Pain score ([4]; 24 h after modeling): 1.30 ± 0.65 | Pain score ([4]; 48 h after modeling): 1.60 ± 0.70 | Pain score ([4]; before modeling): 0.00 ± 0.00 | Paw volume versus model group, in words ([5]; 0.6 mg/kg gavage): significantly reduce the paw volume at 2 h, 8 h, 24 h, and 48 h | Paw volume [5, 6]: 2.54 ± 0.02** cm^3 | Paw volume [5, 7]: 2.58 ± 0.02 cm^3 | Paw volume [5, 8]: 2.54 ± 0.04* cm^3 | Paw volume [5, 9]: 2.55 ± 0.03 cm^3 | Paw volume [5, 10]: 2.41 ± 0.05** cm^3 | Paw volume [5, 11]: 2.23 ± 0.03*** cm^3 | Paw volume [5, 12]: 2.19 ± 0.03 cm^3

COc1cc2c(c(OC)c1OC)-c1ccc(OC3CCOC3)c(=O)cc1[C@@H](NC(C)=O)CC2 (stereo partly drawn) [Compound 26, (S)—N-(1,2,3-trimethoxy-9-oxo-10-[(tetrahydrofuran-3-yl)oxy]-5,6,7,9-tetrahydrobenzo[a]heptalen-7-yl)acetamide]
Decreased TNF-α percentage % [1]: 160.36% | Gait versus model group, in words [2]: significantly improved the gait at 2 h, 8 h, and 24 h | Gait Score ([2]; 2 h after modeling): 1.00 ± 0.00 | Gait Score ([2]; 4 h after modeling): 1.10 ± 0.10 | Gait Score ([2]; 8 h after modeling): 1.20 ± 0.13 | Gait Score ([2]; 10 h after modeling): 1.30 ± 0.15 | Gait Score ([2]; 24 h after modeling): 1.10 ± 0.10 | Gait Score ([2]; 48 h after modeling): 1.10 ± 0.10 | Gait Score ([2]; before modeling): 0.00 ± 0.00 | Decreased IL-6 percentage % [3]: 113.37% | Pain versus model group, in words [4]: significantly improved gait at 2 h | Pain score ([4]; 2 h after modeling): 3.00 ± 0.56 | Pain score ([4]; 4 h after modeling): 2.90 ± 0.67 | Pain score ([4]; 8 h after modeling): 4.30 ± 0.40 | Pain score ([4]; 10 h after modeling): 3.80 ± 0.59 | Pain score ([4]; 24 h after modeling): 3.20 ± 0.51 | Pain score ([4]; 48 h after modeling): 2.20 ± 0.73 | Pain score ([4]; before modeling): 0.00 ± 0.00 | Paw volume versus model group, in words ([5]; 0.6 mg/kg gavage): significantly reduce the paw volume at 2 h, 4 h, and 48 h | Paw volume [5, 6]: 2.53 ± 0.04* cm^3 | Paw volume [5, 7]: 2.54 ± 0.03* cm^3 | Paw volume [5, 8]: 2.55 ± 0.04 cm^3 | Paw volume [5, 9]: 2.57 ± 0.05 cm^3 | Paw volume [5, 10]: 2.47 ± 0.06 cm^3 | Paw volume [5, 11]: 2.34 ± 0.07* cm^3 | Paw volume [5, 12]: 2.19 ± 0.04 cm^3
